Where two headings read alike, the source gives them in different places.
Tested on: hiPSC-CMs (iCell-Cardiomyocytes^2)
Summary of the method: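 Spontaneous field potentials and impedance recorded by MEA at 37°C, 5% CO2 in hiPSC-CM monolayers (50 K/well, fibronectin-coated), 5-min baseline before compound; final DMSO 0.1%. Values are percent change from baseline, mean ± SD, compared with DMSO by Wilcoxon-Mann Whitney, interpreted against DMSO tolerance intervals.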

BR (beating rate), % change from baseline (0.3 µM, 2h): 0±1%
Beating below threshold, number of observations/total well numbers (0.3 µM, 2h): 0/5
Cessation of beating, number of observations/total well numbers (0.3 µM, 2h): 0/5
EAD, number of observations/total well numbers (0.3 µM, 2h): 0/5
FPD (field-potential duration), % change from baseline (0.3 µM, 2h): 2.5±1.9%
FPDc (field-potential duration corrected by beat-rate), % change from baseline (0.3 µM, 2h): 2.6±1.7%
Flat T-wave-like, number of observations/total well numbers (0.3 µM, 2h): 0/5
BR (beating rate), % change from baseline (0.3 µM, 24h): 4±2%
Beating below threshold, number of observations/total well numbers (0.3 µM, 24h): 0/5
Cessation of beating, number of observations/total well numbers (0.3 µM, 24h): 0/5
EAD, number of observations/total well numbers (0.3 µM, 24h): 0/5
FPD (field-potential duration), % change from baseline (0.3 µM, 24h): 2.5±6.9%
FPDc (field-potential duration corrected by beat-rate), % change from baseline (0.3 µM, 24h): 3.8±6.8%
Flat T-wave-like, number of observations/total well numbers (0.3 µM, 24h): 1/5
BR (beating rate), % change from baseline (0.3 µM, 48h): -1±1%
Beating below threshold, number of observations/total well numbers (0.3 µM, 48h): 0/5
Cessation of beating, number of observations/total well numbers (0.3 µM, 48h): 0/5
EAD, number of observations/total well numbers (0.3 µM, 48h): 0/5
FPD (field-potential duration), % change from baseline (0.3 µM, 48h): 5.1±4.5%
FPDc (field-potential duration corrected by beat-rate), % change from baseline (0.3 µM, 48h): 4.5±4.4%
Flat T-wave-like, number of observations/total well numbers (0.3 µM, 48h): 0/5
BR (beating rate), % change from baseline (0.3 µM, 72h): -6±3%
Beating below threshold, number of observations/total well numbers (0.3 µM, 72h): 0/5
Cessation of beating, number of observations/total well numbers (0.3 µM, 72h): 0/5
EAD, number of observations/total well numbers (0.3 µM, 72h): 0/5
FPD (field-potential duration), % change from baseline (0.3 µM, 72h): 1.8±4.6%
FPDc (field-potential duration corrected by beat-rate), % change from baseline (0.3 µM, 72h): -0.2±4.7%
Flat T-wave-like, number of observations/total well numbers (0.3 µM, 72h): 0/5
BR (beating rate), % change from baseline (0.3 µM, 96h): 0±7%
Beating below threshold, number of observations/total well numbers (0.3 µM, 96h): 0/5
Cessation of beating, number of observations/total well numbers (0.3 µM, 96h): 0/5
EAD, number of observations/total well numbers (0.3 µM, 96h): 0/5
FPD (field-potential duration), % change from baseline (0.3 µM, 96h): 2.4±5.7%
FPDc (field-potential duration corrected by beat-rate), % change from baseline (0.3 µM, 96h): 2.7±6.2%
Flat T-wave-like, number of observations/total well numbers (0.3 µM, 96h): 0/5
BR (beating rate), % change from baseline (1 µM, 2h): 0±1%
Beating below threshold, number of observations/total well numbers (1 µM, 2h): 0/4
Cessation of beating, number of observations/total well numbers (1 µM, 2h): 0/4
EAD, number of observations/total well numbers (1 µM, 2h): 0/4
FPD (field-potential duration), % change from baseline (1 µM, 2h): 0.8±4.5%
FPDc (field-potential duration corrected by beat-rate), % change from baseline (1 µM, 2h): 1.1±4.5%
Flat T-wave-like, number of observations/total well numbers (1 µM, 2h): 0/4
BR (beating rate), % change from baseline (1 µM, 24h): 6±1%
Beating below threshold, number of observations/total well numbers (1 µM, 24h): 0/4
Cessation of beating, number of observations/total well numbers (1 µM, 24h): 0/4
EAD, number of observations/total well numbers (1 µM, 24h): 0/4
FPD (field-potential duration), % change from baseline (1 µM, 24h): 13±11.4%
FPDc (field-potential duration corrected by beat-rate), % change from baseline (1 µM, 24h): 15.1±11.7%
Flat T-wave-like, number of observations/total well numbers (1 µM, 24h): 0/4
BR (beating rate), % change from baseline (1 µM, 48h): 0±2%
Beating below threshold, number of observations/total well numbers (1 µM, 48h): 0/4
Cessation of beating, number of observations/total well numbers (1 µM, 48h): 0/4
EAD, number of observations/total well numbers (1 µM, 48h): 0/4
FPD (field-potential duration), % change from baseline (1 µM, 48h): 12.6±11.7%
FPDc (field-potential duration corrected by beat-rate), % change from baseline (1 µM, 48h): 12.5±11.6%
Flat T-wave-like, number of observations/total well numbers (1 µM, 48h): 0/4
BR (beating rate), % change from baseline (1 µM, 72h): 0±5%
Beating below threshold, number of observations/total well numbers (1 µM, 72h): 0/4
Cessation of beating, number of observations/total well numbers (1 µM, 72h): 0/4
EAD, number of observations/total well numbers (1 µM, 72h): 0/4
FPD (field-potential duration), % change from baseline (1 µM, 72h): 8.9±8.5%
FPDc (field-potential duration corrected by beat-rate), % change from baseline (1 µM, 72h): 8.8±8.8%
Flat T-wave-like, number of observations/total well numbers (1 µM, 72h): 0/4
BR (beating rate), % change from baseline (1 µM, 96h): 2±3%
Beating below threshold, number of observations/total well numbers (1 µM, 96h): 0/4
Cessation of beating, number of observations/total well numbers (1 µM, 96h): 0/4
EAD, number of observations/total well numbers (1 µM, 96h): 0/4
FPD (field-potential duration), % change from baseline (1 µM, 96h): 9.2±9.9%
FPDc (field-potential duration corrected by beat-rate), % change from baseline (1 µM, 96h): 10.3±10.9%
Flat T-wave-like, number of observations/total well numbers (1 µM, 96h): 0/4
BR (beating rate), % change from baseline (3 µM, 72h): 6±4%
Beating below threshold, number of observations/total well numbers (3 µM, 72h): 0/5
Cessation of beating, number of observations/total well numbers (3 µM, 72h): 0/5
EAD, number of observations/total well numbers (3 µM, 72h): 0/5
FPD (field-potential duration), % change from baseline (3 µM, 72h): 1.7±4.6%
FPDc (field-potential duration corrected by beat-rate), % change from baseline (3 µM, 72h): 3.6±3.3%
Flat T-wave-like, number of observations/total well numbers (3 µM, 72h): 0/5
BR (beating rate), % change from baseline (3 µM, 96h): 14±5 %
Beating below threshold, number of observations/total well numbers (3 µM, 96h): 0/5
Cessation of beating, number of observations/total well numbers (3 µM, 96h): 0/5
EAD, number of observations/total well numbers (3 µM, 96h): 0/5
FPD (field-potential duration), % change from baseline (3 µM, 96h): -4.1±6.5%
FPDc (field-potential duration corrected by beat-rate), % change from baseline (3 µM, 96h): 0.1±7%
Flat T-wave-like, number of observations/total well numbers (3 µM, 96h): 0/5
BR (beating rate), % change from baseline (3 µM, 2h): 2±4%
Beating below threshold, number of observations/total well numbers (3 µM, 2h): 0/5
Cessation of beating, number of observations/total well numbers (3 µM, 2h): 0/5
EAD, number of observations/total well numbers (3 µM, 2h): 0/5
FPD (field-potential duration), % change from baseline (3 µM, 2h): 3.7±3.5%
FPDc (field-potential duration corrected by beat-rate), % change from baseline (3 µM, 2h): 4.4±2.3%
Flat T-wave-like, number of observations/total well numbers (3 µM, 2h): 0/5
BR (beating rate), % change from baseline (3 µM, 24h): 7±0%
Beating below threshold, number of observations/total well numbers (3 µM, 24h): 0/5
Cessation of beating, number of observations/total well numbers (3 µM, 24h): 0/5
EAD, number of observations/total well numbers (3 µM, 24h): 0/5
FPD (field-potential duration), % change from baseline (3 µM, 24h): 8.9±1.5%
FPDc (field-potential duration corrected by beat-rate), % change from baseline (3 µM, 24h): 11.3±1.4%
Flat T-wave-like, number of observations/total well numbers (3 µM, 24h): 0/5
BR (beating rate), % change from baseline (3 µM, 48h): 7±2%
Beating below threshold, number of observations/total well numbers (3 µM, 48h): 0/5
Cessation of beating, number of observations/total well numbers (3 µM, 48h): 0/5
EAD, number of observations/total well numbers (3 µM, 48h): 0/5
FPD (field-potential duration), % change from baseline (3 µM, 48h): 2.8±2.5%
FPDc (field-potential duration corrected by beat-rate), % change from baseline (3 µM, 48h): 4.9±2.3%
Flat T-wave-like, number of observations/total well numbers (3 µM, 48h): 0/5
BR (beating rate), % change from baseline (10 µM, 2h): 1±2%
Beating below threshold, number of observations/total well numbers (10 µM, 2h): 0/5
Cessation of beating, number of observations/total well numbers (10 µM, 2h): 0/5
EAD, number of observations/total well numbers (10 µM, 2h): 0/5
FPD (field-potential duration), % change from baseline (10 µM, 2h): 5.5±2.1%
FPDc (field-potential duration corrected by beat-rate), % change from baseline (10 µM, 2h): 6±2.3%
Flat T-wave-like, number of observations/total well numbers (10 µM, 2h): 0/5
BR (beating rate), % change from baseline (10 µM, 24h): 10±3%
Beating below threshold, number of observations/total well numbers (10 µM, 24h): 0/5
Cessation of beating, number of observations/total well numbers (10 µM, 24h): 0/5
EAD, number of observations/total well numbers (10 µM, 24h): 0/5
FPD (field-potential duration), % change from baseline (10 µM, 24h): 11.3±10%
FPDc (field-potential duration corrected by beat-rate), % change from baseline (10 µM, 24h): 15.1±11%
Flat T-wave-like, number of observations/total well numbers (10 µM, 24h): 0/5
BR (beating rate), % change from baseline (10 µM, 48h): 17±3%
Beating below threshold, number of observations/total well numbers (10 µM, 48h): 0/5
Cessation of beating, number of observations/total well numbers (10 µM, 48h): 0/5
EAD, number of observations/total well numbers (10 µM, 48h): 0/5
FPD (field-potential duration), % change from baseline (10 µM, 48h): -0.8±13.7%
FPDc (field-potential duration corrected by beat-rate), % change from baseline (10 µM, 48h): 4.7±14.8%
Flat T-wave-like, number of observations/total well numbers (10 µM, 48h): 1/5
BR (beating rate), % change from baseline (10 µM, 72h): 26±7 %
Beating below threshold, number of observations/total well numbers (10 µM, 72h): 0/5
Cessation of beating, number of observations/total well numbers (10 µM, 72h): 0/5
EAD, number of observations/total well numbers (10 µM, 72h): 0/5
FPD (field-potential duration), % change from baseline (10 µM, 72h): -10.2±17%
FPDc (field-potential duration corrected by beat-rate), % change from baseline (10 µM, 72h): -2.8±19.3%
Flat T-wave-like, number of observations/total well numbers (10 µM, 72h): 1/5
BR (beating rate), % change from baseline (10 µM, 96h): 48±6 %
Beating below threshold, number of observations/total well numbers (10 µM, 96h): 0/5
Cessation of beating, number of observations/total well numbers (10 µM, 96h): 0/5
EAD, number of observations/total well numbers (10 µM, 96h): 0/5
FPD (field-potential duration), % change from baseline (10 µM, 96h): -14.5±9.4%
FPDc (field-potential duration corrected by beat-rate), % change from baseline (10 µM, 96h): -2.5±12.4%
Flat T-wave-like, number of observations/total well numbers (10 µM, 96h): 2/5
Structure (SMILES): CC(C)(Sc1cc(C(C)(C)C)c(O)c(C(C)(C)C)c1)Sc1cc(C(C)(C)C)c(O)c(C(C)(C)C)c1 [Probucol]
prolongation of FPD / FPDc (all concentrations tested): did not induce a statistically significant prolongation of the FPD

Source: PMC10364322, “Evaluation of chronic drug-induced electrophysiological and cytotoxic effects using human-induced pluripotent stem cell-derived cardiomyocytes (hiPSC-CMs)” (Frontiers in Pharmacology, 2023)
